Where two headings read alike, the source gives them in different places.
Key:
KM12 cells = assay: KM12 cell viability (CellTiter-Glo); assay type: cell-based; conditions: for IC50: Homo sapiens, 72 h, KM12 cell viability, CellTiter-Glo, read-out: IC50
Procedure, shortened: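 Three-day exposure of KM12 cells (5000/well, RPMI 1640 with 10% FBS, 37 °C, 5% CO2) to compound dilution series, 3-fold over 8 or 11 points (top 1000 nM in the 8-point format) or 2-fold over 12. CellTiter-Glo readout, with IC50 fitted by nonlinear least-squares regression.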

TPM3-TRKA fusion protein = biological target: T1, TPM3-TRKA fusion protein (Homo sapiens, UniProt P04629); assay: TPM3-TRKA fusion protein levels in KM12 cells (Western blot); assay type: cell-based; conditions: 16 h, read-out: Degradation (at 10 nM)
T1 construct: The resulted chimeric proteins always retain the kinase domain of TRK proteins; TPM3 (fusion partner, N-terminal part of tropomyosin alpha-3, P06753); endogenous in cells; host or cells: KM12 colon cancer cells; the other entry of the earlier key: TPM3 (P06753, Tropomyosin alpha-3 chain)
Procedure, shortened: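 TPM3-TRKA levels were assessed by Western blot with chemiluminescent detection and band densitometry, after SDS-PAGE of BCA-normalized RIPA lysates. Before lysis, KM12 cells received DMSO, compounds or matched control compounds at concentrations including 0.1, 1, 10 and 100 nM and 0.4–30 nM. Exposures lasted 4 h, 8–16 h or 16 h.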

[1] = TPM3-TRKA degradation in KM12 cells at 10 nM compound, category of percentage degradation

T1 sequence (P04629 with tags, fused parts or gaps): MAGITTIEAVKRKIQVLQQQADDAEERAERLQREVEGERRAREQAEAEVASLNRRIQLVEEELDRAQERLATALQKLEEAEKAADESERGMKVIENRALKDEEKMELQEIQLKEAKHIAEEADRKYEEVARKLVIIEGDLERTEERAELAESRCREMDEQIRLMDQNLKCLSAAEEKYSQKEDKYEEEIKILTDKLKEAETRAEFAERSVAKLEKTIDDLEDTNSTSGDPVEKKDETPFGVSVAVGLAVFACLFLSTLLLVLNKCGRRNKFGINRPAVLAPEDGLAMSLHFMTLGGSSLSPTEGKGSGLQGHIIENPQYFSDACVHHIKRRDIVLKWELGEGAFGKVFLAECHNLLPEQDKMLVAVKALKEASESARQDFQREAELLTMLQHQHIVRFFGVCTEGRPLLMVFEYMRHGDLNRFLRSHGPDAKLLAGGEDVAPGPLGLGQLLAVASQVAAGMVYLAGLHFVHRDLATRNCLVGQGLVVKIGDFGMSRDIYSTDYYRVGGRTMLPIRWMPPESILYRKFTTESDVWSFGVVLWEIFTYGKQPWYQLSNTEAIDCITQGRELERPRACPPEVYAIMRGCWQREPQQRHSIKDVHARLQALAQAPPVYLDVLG

## O=C1CCC(N2C(=O)c3ccc(CN4CC(CN5CCN(c6ccc(C(=O)Nc7n[nH]c8ccc(Cc9cc(F)cc(F)c9)cc78)c(NC7CCOCC7)c6)CC5)C4)cc3C2=O)C(=O)N1 (centres unmarked) [TR-249, N-(5-(3,5-difluorobenzyl)-1H-indazol-3-yl)-4-(4-((1-((2-(2,6-dioxopiperidin-3-yl)-1,3-dioxoisoindolin-5-yl)methyl)azetidin-3-yl)methyl)piperazin-1-yl)-2-((tetrahydro-2H-pyran-4-yl)amino)benzamide]
KM12 cells; three days treatment
  IC50: 15.1 nM
TPM3-TRKA fusion protein; [1]
  percent degradation of TPM3-TRKA protein at 0.01 µM: > 80%

## O=C1CCC(N2C(=O)c3ccc(CN4CC(CN5CCN(c6ccc(C(=O)Nc7n[nH]c8ccc(Cc9cc(F)cc(F)c9)cc78)c(NCCF)c6)CC5)C4)cc3C2=O)C(=O)N1 (centres unmarked) [TR-251]
KM12 cells; three days treatment
  IC50: 46.5 nM
TPM3-TRKA fusion protein; [1]
  percent degradation of TPM3-TRKA protein at 0.01 µM: > 80%

## Cn1c(=O)n(C2CCC(=O)NC2=O)c2ccc(CCCCN3CCN(c4ccc(C(=O)Nc5n[nH]c6ccc(Cc7cc(F)cc(F)c7)cc56)c(NC5CCOCC5)c4)CC3)cc21 (stereo not drawn) [TR-320, N—(S-(3,5-difluorobenzyl)-1H-indazol-3-yl)-4-(4-(4-(1-(2,6-dioxopiperidin-3-yl)-3-methyl-2-oxo-2,3-dihydro-1H-benzo[d]imidazol-5-yl)butyl)piperazin-1-yl)-2-((tetrahydro-2H-pyran-4-yl)amino)benzamide]
KM12 cells; three days treatment
  IC50: 1.4 nM
TPM3-TRKA fusion protein; [1]
  percent degradation of TPM3-TRKA protein at 0.01 µM: > 80%

## O=C1CCC(N2Cc3cc(C4CN(CC5CCN(c6ccc(C(=O)Nc7n[nH]c8ccc(Cc9cc(F)cc(F)c9)cc78)c(NC7CCOCC7)c6)CC5)C4)ccc3C2=O)C(=O)N1 (centres unmarked) [TR-330, N-(5-(3,5-Difluorobenzyl)-1H-indazol-3-yl)-4-(4-((3-(2-(2,6-dioxopiperidin-3-yl)-1-oxoisoindolin-5-yl)azetidin-1-yl)methyl)piperidin-1-yl)-2-((tetrahydro-2H-pyran-4-yl)amino)benzamide]
KM12 cells; three days treatment
  IC50: 28.5 nM
TPM3-TRKA fusion protein; [1]
  percent degradation of TPM3-TRKA protein at 0.01 µM: > 80%

## COc1ccc(COc2ccc(Cn3c(N)nc4cc(-c5cnn(CC(=O)NCCCCCCCCCC(=O)N[C@H](C(=O)N6C[C@H](O)C[C@H]6C(=O)NCc6ccc(-c7scnc7C)cc6)C(C)(C)C)c5)cnc43)cc2OC)cc1 [CPD-511, (2S,4R)-1-((S)-2-(10-(2-(4-(2-amino-3-(3-methoxy-4-((4-methoxybenzyl)oxy)benzyl)-3H-imidazo[4,5-b]505yridine-6-yl)-1H-pyrazol-1-yl)acetamido)decanamido)-3,3-dimethylbutanoyl)-4-hydroxy-N-(4-(4-methylthiazol-5-yl)benzyl)pyrrolidine-2-carboxamide]
KM12 cells; 11-point 3-fold serial dilution, 3 days
  IC50: 85.8 nM
TPM3-TRKA fusion protein; TPM3-TRKA degradation in KM12 cells at 10 nM
  percent degradation of TPM3-TRKA protein at 0.01 µM: < 50%

## O=C1CCC(N2C(=O)c3cccc(NCCOCCOCCOCCC(=O)N4CCN(c5cccc(-c6cnc7ccc(N8CCC[C@@H]8c8cccc(F)c8)nn67)n5)CC4)c3C2=O)C(=O)N1 (stereo partly drawn) [CPD-010, 2-(2,6-Dioxopiperidin-3-yl)-4-((2-(2-(2-(3-(4-(6-(6-((R)-2˜ (3-fluorophenyl)pyrrolidin-1-yl)imidazo[1,2-b]pyridazin-3-yl)pyridin-2-yl)piperazin-1-yl)-3-oxopropoxy)ethoxy)ethoxy)ethyl)amino) isoindoline-1,3-dione]
KM12 cells; 500 nM, 12-point 2-fold serial dilution, 3 days (FIG. 4A)
  viability of KM12 cells: inhibited the viability of KM12 cells
TPM3-TRKA fusion protein; [1]
  percent degradation of TPM3-TRKA protein at 0.01 µM: 50 to 80%

## O=C1CCC(N2C(=O)c3ccc(NC(=O)CN4CCN(c5ccc(C(=O)Nc6n[nH]c7ccc(Cc8cc(F)cc(F)c8)cc67)c(NC6CCOCC6)c5)CC4)cc3C2=O)C(=O)N1 (centres unmarked) [TR-273, N-(5-(3,5-Difluorobenzyl)-1H-indazol-3-yl)-4-(4-(2-((2-(2,6-dioxopiperidin-3-yl)-1,3-dioxoisoindolin-5-yl)amino)-2-oxoethyl)piperazin-1-yl)-2-((tetrahydro-2H-pyran-4-yl)amino)benzamide]
KM12 cells; three days treatment
  IC50: 41.1 nM
TPM3-TRKA fusion protein; [1]
  percent degradation of TPM3-TRKA protein at 0.01 µM: > 80%
